Results on 44 compounds are retold here after patent US4115385A, “Antibacterial 3-(5-tetrazolyl) penam compounds” (Pfizer Inc., priority 1977, dated 1978).

In brackets after ≈: the same amount, converted by molar mass.

The first assay deals with Streptococcus pyogenes. The experiment in a line: In vitro minimum inhibitory concentration (MIC) vs. Strep. pyogenes. Particulars: Streptococcus pyogenes, read-out: MIC vs. Strep. pyogenes. In kind it is cell-based. The procedure, abridged: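 Broth inoculated with bacteria and test antibiotic, incubated overnight and read visually; MIC is the lowest concentration preventing turbidity. Test preparations also contain some of the corresponding tetrazole tautomer.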
For the compound `CC1(C)S[C@@H]2[C@H](NC(=O)[C@H](NC(=O)Nc3ccc(Cl)cc3)c3ccccc3)C(=O)N2[C@H]1c1nnn[nH]1`, the minimum inhibitory concentration (MIC) (usually the lowest concentration that inhibits growth of the organism) was below 0.1 µg/mL.
In the case of `CCOC(=O)C(=O)N[C@@H](C(=O)N[C@@H]1C(=O)N2[C@@H]1SC(C)(C)[C@@H]2c1nnn[nH]1)c1ccccc1`, the MIC is below 0.1 µg/mL.
Regarding `CC1(C)S[C@@H]2[C@H](NC(=O)Cc3ccccc3CN)C(=O)N2[C@H]1c1nnn[nH]1` [2-(o-[aminomethyl]phenyl)acetyl, 6-[2-[o-(aminomethyl)phenyl]acetamido]-2,2-dimethyl-3-(5-tetrazolyl)penam], the MIC is below 0.1 µg/mL.
Still for that read-out and setting: under `CC1(C)S[C@@H]2[C@H](NC(=O)[C@H](N)c3cccc(N)c3)C(=O)N2[C@H]1c1nnn[nH]1` [D-2-amino-(3-aminophenyl)acetyl, 6-(D-2-Amino-2-[3-aminophenyl]acetamido)-2,2-dimethyl-3-(5-tetrazolyl)penam] stands below 0.1 µg/mL; under `CC1(C)S[C@@H]2[C@H](NC(=O)[C@H](NC(=O)CNC(=O)c3ccccc3)c3ccccc3)C(=O)N2[C@H]1c1nn[nH]n1` [6-(2-D-[2-Benzamidoacetamido]-2-phenylacetamido)-2,2-dimethyl-3-(5-tetrazolyl)penam], below 0.1 µg/mL; under `CC1(C)S[C@@H]2[C@H](NC(=O)[C@H](NC(=O)c3ccco3)c3ccccc3)C(=O)N2[C@H]1c1nnn[nH]1` [D-2-(2-furancarboxamido)-2-phenylacetyl], 0.1 µg/mL (≈ 0.214 µM).
The same measure, in the same setting: the result for `CCNC(=O)NCC(=O)N[C@@H](C(=O)N[C@@H]1C(=O)N2[C@@H]1SC(C)(C)[C@@H]2c1nnn[nH]1)c1ccccc1` [6-(D-2-[2-(3-Ethylureiod)acetamido]-2-phenylacetamido)-2,2-dimethyl-3-(5-tetrazolyl)penam] reads below 0.1 µg/mL; that for `CC1(C)S[C@@H]2[C@H](NC(=O)[C@H](NC(=O)CSc3ccccc3)c3ccccc3)C(=O)N2[C@H]1c1nnn[nH]1`, below 0.1 µg/mL; that for `CC1(C)S[C@@H]2[C@H](NC(=O)Cc3ccc(OCCN=[N+]=[N-])cc3)C(=O)N2[C@H]1c1nn[nH]n1` [2-(4-[2-azidoethoxy]phenyl)acetyl, 6-(2-[4-(2-Azidoethoxy)phenyl]acetamido)-2,2-dimethyl-3-(5-tetrazolyl)penam], below 0.1 µg/mL.
With `CC1(C)S[C@@H]2[C@H](NC(=O)[C@H](N)c3ccc(O)c(Cl)c3)C(=O)N2[C@H]1c1nnn[nH]1` [6-(D-2-amino-2-[3-chloro-4-hydroxyphenyl]acetamido)-2,2-dimethyl-3-(5-tetrazolyl)penam], the MIC was determined as 0.1 µg/mL (≈ 0.236 µM).
The same measure, in the same setting: the result for `CC1(C)S[C@@H]2[C@H](NC(=O)[C@H](NC(=O)NC(=O)c3ccco3)c3ccccc3)C(=O)N2[C@H]1c1nn[nH]n1` [D-2-(3-[2-furoyl]ureido)-2-phenylacetyl, 6-(D-2-[3-(2-Furoyl)ureido]-2-phenylacetamido)-2,2-dimethyl-3-(5-tetrazolyl)penam] reads below 0.1 µg/mL; that for `CC(=N)NCC(=O)N[C@@H]1C(=O)N2[C@@H]1SC(C)(C)[C@@H]2c1nnn[nH]1` [2-(acetamidino)acetyl], below 0.1 µg/mL; that for `COc1ccc(CC(=O)N[C@@H](C(=O)N[C@@H]2C(=O)N3[C@@H]2SC(C)(C)[C@@H]3c2nnn[nH]2)c2ccccc2)cc1`, 0.1 µg/mL (≈ 0.192 µM).
On the same count and under the same terms, under `CCCC(=O)NC(=O)N[C@@H](C(=O)N[C@@H]1C(=O)N2[C@@H]1SC(C)(C)[C@@H]2c1nn[nH]n1)c1ccccc1` [2-(3-butyrylureido)-2-phenylacetyl] stands below 0.1 µg/mL; under `CC1(C)S[C@@H]2[C@H](NC(=O)[C@H](NC(=O)CNS(=O)(=O)Cc3ccccc3)c3ccccc3)C(=O)N2[C@H]1c1nn[nH]n1`, below 0.1 µg/mL.
The same measure, in the same setting: under `CC1(C)S[C@@H]2[C@H](NC(=O)[C@H](NC(=O)CCC(=N)N)c3ccccc3)C(=O)N2[C@H]1c1nn[nH]n1` stands below 0.1 µg/mL.
Take `CC1(C)S[C@@H]2[C@H](NC(=O)[C@H](NC(=O)CCNC(=O)c3ccc(Cl)cc3)c3ccccc3)C(=O)N2[C@H]1c1nnn[nH]1`: the minimum inhibitory concentration (MIC) is below 0.1 µg/mL.
With `CC1(C)S[C@@H]2[C@H](NC(=O)Cc3ccccc3OCCN)C(=O)N2[C@H]1c1nn[nH]n1` [2-(o-[2-aminoethoxy]phenyl)acetyl, 6-(2-[2-(2-Aminoethoxy)phenyl]acetamido)-2,2-dimethyl-3-(5-tetrazolyl)penam], the MIC was below 0.1 µg/mL.
Still for that read-out and setting: under `CN(C)C=N[C@@H](C(=O)N[C@@H]1C(=O)N2[C@@H]1SC(C)(C)[C@@H]2c1nnn[nH]1)c1ccccc1` [6-(D-2-[Dimethylaminomethyleneamino]-2-phenylacetamido)-2,2-dimethyl-3-(5-tetrazolyl)penam] stands below 0.1 µg/mL.
Same read-out and setting: under `CC1(C)S[C@@H]2[C@H](NC(=O)[C@H](NC(=O)CCNC(=N)c3cccs3)c3ccccc3)C(=O)N2[C@H]1c1nnn[nH]1` stands below 0.1 µg/mL; under `CC1(C)S[C@@H]2[C@H](NC(=O)Oc3ccccc3)C(=O)N2[C@H]1c1nnn[nH]1` [phenoxycarbonyl], below 0.1 µg/mL; under `CC1(C)S[C@@H]2[C@H](NC(=O)[C@H](NC(=O)CN)c3ccccc3)C(=O)N2[C@H]1c1nn[nH]n1` [D-2-(2-aminoacetamido)-2-phenylacetyl, 6-(D-2-[2-Aminoacetamido]-2-phenylacetamido)-2,2-dimethyl-3-(5-tetrazolyl)penam], below 0.1 µg/mL.
Same read-out and setting: the result for `CC1(C)S[C@@H]2[C@H](NC(=O)Cc3ccc(CN)s3)C(=O)N2[C@H]1c1nnn[nH]1` [2-(5-aminomethyl-2-thienyl)-acetyl, 6-(2-[5-Aminomethyl-2-thienyl]acetamido)-2,2-dimethyl-3-(5-tetrazolyl)penam] reads at most 0.1 µg/mL; that for `CC1(C)S[C@@H]2[C@H](NC(=O)[C@H](NC(=O)CCNC(=O)c3ccccc3)c3ccccc3)C(=O)N2[C@H]1c1nnn[nH]1`, below 0.1 µg/mL.
In the case of `CC1(C)S[C@@H]2[C@H](NC(=O)[C@H](NC(=O)CNC(=N)c3cc[n+]([O-])cc3)c3ccccc3)C(=O)N2[C@H]1c1nnn[nH]1`, the MIC is below 0.1 µg/mL.
Same read-out and setting: the result for `CCOC(=O)CC(=O)N[C@@H](C(=O)N[C@@H]1C(=O)N2[C@@H]1SC(C)(C)[C@@H]2c1nnn[nH]1)c1ccccc1` reads below 0.1 µg/mL; that for `CC1(C)S[C@@H]2[C@H](NC(=O)[C@H](NC(=O)CCl)c3ccco3)C(=O)N2[C@H]1c1nn[nH]n1` [6-(D-2-[2-Chloroacetamido]-2-[2-furyl]acetamido)-2,2-dimethyl-3-(5-tetrazolyl)penam], below 0.1 µg/mL; that for `COc1ccc(C(=O)NCC(=O)N[C@@H](C(=O)N[C@@H]2C(=O)N3[C@@H]2SC(C)(C)[C@@H]3c2nnn[nH]2)c2ccccc2)cc1`, 0.1 µg/mL (≈ 0.177 µM).
Same read-out and setting: under `CC1(C)S[C@@H]2[C@H](NC(=O)Cc3ccccc3CN=[N+]=[N-])C(=O)N2[C@H]1c1nnn[nH]1` [2-(2-azidomethylphenyl)acetyl, 6-(2-[2-Azidomethylphenyl]acetamido)-2,2-dimethyl-3-(5-tetrazolyl)penam] stands at most 0.1 µg/mL.

The same assay, now with this note: Streptococcus pyogenes; Table II; two-fold serial dilution, Brain-Heart Infusion broth, overnight; read-out: MIC vs. Strep. pyogenes.
Regarding `CCS(=O)(=O)N[C@@H](C(=O)N[C@@H]1C(=O)N2[C@@H]1SC(C)(C)[C@@H]2c1nn[nH]n1)c1ccccc1` [D-2-(ethanesulfonamido)-2-phenylacetyl], the MIC amounted to 0.39 µg/mL (≈ 0.838 µM).
The same measure, in the same setting: under `CC1(C)S[C@@H]2[C@H](NC(=O)[C@H](NC(=O)c3ccc(NC(=N)N)cc3)c3ccccc3)C(=O)N2[C@H]1c1nn[nH]n1` [6-(D-2-[p-Guanidinobenzamido]-2-phenylacetamido)-2,2-dimethyl-3-(5-tetrazolyl)penam] stands 1.56 µg/mL (≈ 2.92 µM); under `C/C(CN)=C(\C(=O)NC1C(=O)N2C(c3nnn[nH]3)C(C)(C)S[C@H]12)c1ccccc1` (some centres unmarked) [3-aminomethyl-2-phenylisocrotonoyl, 6-(3-Aminomethyl-2-phenylisocrotonamido)-2,2-dimethyl-3-(5-tetrazolyl)penam], 12.5 µg/mL (≈ 30.2 µM); under `CC1(C)S[C@@H]2[C@H](NC(=O)[C@H](NC(=O)CSCc3ccccc3)c3ccccc3)C(=O)N2[C@H]1c1nnn[nH]1`, 0.78 µg/mL (≈ 1.45 µM).
Still for that read-out and setting: under `CC1(C)S[C@@H]2[C@H](NC(=O)[C@H](NC(=O)CNC(=N)c3cccc(C#N)c3)c3ccccc3)C(=O)N2[C@H]1c1nnn[nH]1` stands 6.25 µg/mL (≈ 11.2 µM).
Same read-out and setting: the result for `CC(=O)C(=O)N[C@@H](C(=O)N[C@@H]1C(=O)N2[C@@H]1SC(C)(C)[C@@H]2c1nnn[nH]1)c1ccccc1` [D-2-(acetylformamido)-2-phenylacetyl] reads 50 µg/mL (≈ 113 µM).
With `CC1(C)S[C@@H]2[C@H](NC(=O)[C@H](NC(=O)CNC(=N)c3nc4ccccc4o3)c3ccccc3)C(=O)N2[C@H]1c1nnn[nH]1`, the minimal inhibitory concentration (MIC) came out at 0.39 µg/mL (≈ 0.679 µM).
In the case of `CC1(C)S[C@@H]2[C@H](NC(=O)C(CN)c3ccccc3)C(=O)N2[C@H]1c1nnn[nH]1` (mixture of isomers) [DL-3-amino-2-phenylpropionyl, 6-(DL-3-amino-2-phenylpropionamido)-2,2-dimethyl-3-(5-tetrazolyl)penam], the minimum inhibitory concentration (MIC) is 12.5 µg/mL.
The same measure, in the same setting: the result for `CC1(C)S[C@@H]2[C@H](NC(=O)[C@H](NC(=O)CNC(=O)NC(=N)NCc3ccncc3)c3ccccc3)C(=O)N2[C@H]1c1nn[nH]n1` reads 0.004 µg/mL (≈ 0.00659 µM); that for `CC1(C)S[C@@H]2[C@H](NC(=O)[C@H](NC(=O)NC(=O)c3ccncc3)c3ccccc3)C(=O)N2[C@H]1c1nn[nH]n1`, 0.2 µg/mL (≈ 0.383 µM); that for `CC1(C)S[C@@H]2[C@H](NC(=O)[C@H](NC(=O)NC(=O)CCl)c3ccccc3)C(=O)N2[C@H]1c1nn[nH]n1` [2-(3-[chloroacetyl]ureido-2-phenylacetyl], 0.2 µg/mL (≈ 0.406 µM).
Same read-out and setting: the result for `CC1(C)S[C@@H]2[C@H](NC(=O)C(c3ccccc3)S(=O)(=O)O)C(=O)N2[C@H]1c1nnn[nH]1` (some centres unmarked) [2-sulfo-2-phenylacetyl, 6-(2-Sulfo-2-phenylacetamido)-2,2-dimethyl-3-(5-tetrazolyl)penam] reads 200 µg/mL (≈ 456 µM); that for `CNC(=O)N[C@@H](C(=O)N[C@@H]1C(=O)N2[C@@H]1SC(C)(C)[C@@H]2c1nnn[nH]1)c1ccccc1` [D-2-(3-methylureido)-2-phenylacetyl], 50 µg/mL (≈ 116 µM); that for `COc1cccc(OC)c1C(=O)N[C@@H]1C(=O)N2[C@@H]1SC(C)(C)[C@@H]2c1nnn[nH]1` [2,6-dimethoxybenzoyl, 6-(2,6-dimethoxybenzamido)-2,2-dimethyl-3-(5-tetrazolyl)penam], 0.2 µg/mL (≈ 0.494 µM).
Take `CC1(C)S[C@@H]2[C@H](NC(=O)[C@H](NC(=O)CNC(=N)c3cc(Cl)cc(S(N)(=O)=O)c3)c3ccccc3)C(=O)N2[C@H]1c1nnn[nH]1`: the minimal inhibitory concentration (MIC) amounted to 0.004 µg/mL (≈ 0.00618 µM).
